What was measured:
hNPCs = experiment: hNPC viability, proliferation, apoptosis and identity; assay type: cell-based, human; settings: 20 μM Merbromin, 72 h after ZIKV infection
Protocol: (A) Scheme of high content chemical screen. (B) Chemical structure of hit compounds. (C) Inhibitory curve and IC50 of HH or AQ on hNPCs (n=6). (D-H) Immunocytochemistry analysis (D), the quantification of the infection rate (E), the quantification of proliferation rate (F), the quantification of cell apoptosis rate (G) and the normalized cell viability (H) of hNPCs at 72 h after ZIKV (MR 766 strain) infection with or without drug treatment. Scale bars, 100 μm. The ZIKV infection rate is defined as the percentage of ZIKV E^+ cells. The proliferation rate is defined as the percentages of Ki67^+ cells. The cell apoptosis rate was defined as the percentage of cleaved-Caspase 3/CAS3^+ cells. The normalized cell viability was calculated by dividing the total cell number of each condition by the total cell number under mock infection conditions. (n=6). (I) qRT-PCR analysis to monitor the total ZIKV vRNA in the supernatant of hNPC cultures at 72 h after ZIKV infection with or without drug treatment. (J) Vero cell reinfection assay to monitor the ZIKV infectious particles in the supernatant of hNPC cultures with or without drug treatment. To perform the Vero cell reinfection assay, hNPCs at 72 h after ZIKV infection were washed three times and changed to drug free medium for an additional 24 h. Vero cells were infected with the supernatant collected from hNPCs for 2 h and changed to virus free medium for an additional 24 h. Vero cells were stained with antibody against ZIKV E and DAPI. Scale bars, 200 μm. (n=3). (K) Quantification of ZIKV infectious particles produced by ZIKV-infected hNPCs with or without compound treatment by the Vero cell reinfection assay. (L) Heatmap analysis of mock-infected hNPCs treated with DMSO (mock); mock infected hNPCs treated with 25 μM HH (HH), mock-infected hNPCs treated with 15 μM AQ (AQ), ZIKV (MR766 strain, MOI=0.125) infected hNPCs treated with DMSO (ZIKV+DMSO); ZIKV-infected hNPCs treated with 25 μM HH (ZIKV+HH), and ZIKV-infected hNPCs treated with 15 μM AQ (ZIKV+AQ). […] (M and N) Immunocytochemistry analysis (M) and quantification of the infection rate (N) of hNPCs at 72 h after ZIKV (PRVABC59 strain) infection with or without drug treatment (n=6). Scale bars, 100 μm. p values were calculated by one-way repeated measures ANOVA with a Bonferroni test for multiple comparisons. *p<0.05, **p<0.01 and ***p<0.001.
(A) Scheme to evaluate the elimination of ZIKV. At day 0, hNPCs were infected with ZIKV for 2 h. After removal of ZIKV infection medium, hNPCs were treated with drug candidates. At day 3, the culture medium was changed to fresh medium without compounds. The cells were maintained in drug-free culture until day 6 and used for immunohistochemistry and qRT-PCR. (B and C) Inhibitory curve and IC50 of HH calculated based on the infection rate (B) and normalized cell viability (C) (n=6). (D and E) Immunocytochemistry analysis (D) and the quantification of infection rate, cell apoptosis rate, and total cell number (E) of hNPCs on day 3 and day 6. Cells was fixed and stained with cleaved Caspase-3 (CAS3), ZIKV E and DAPI. Scale bars, 100 μm. (F) qRT-PCR analysis to monitor the total ZIKV vRNA in the supernatant of hNPC cultures on day 6. Scale bars, 200 μm. (n=3). (G) Vero cell reinfection assay to monitor the infective ZIKV vRNA in the supernatant of hNPC cultures at day 6 after ZIKV infection. Scale bars, 200 μm. (n=3). (H) Quantification of ZIKV infectious particles produced by ZIKV-infected hNPCs at day 6 by the Vero cell reinfection assay. (I) hNPCs with or without ZIKV infection treated with HH maintain hNPC marker expression and differentiation capacity. hNPCs with or without ZIKV MR766 infection were treated with 25 μM HH or DMSO for 3 days and then stained for SOX2, NESTIN and with DAPI. hNPCs with or without ZIKV infection and treated with HH or DMSO for 3 days were differentiated to cortical neurons. The cortical neurons were then fixed and stained for MAP2, TUJ1 and with DAPI. Scale bars, 100 μm. (n=3). […]

ZIKV MR766 = experiment: Inhibition of ZIKV infection of hNPCs (high content screen / inhibitory curve, ZIKV E staining); assay type: cell-based, Zika virus; settings: 20 μM Merbromin, 72 h after ZIKV infection
Protocol: A high content chemical screen identifies compounds that inhibit ZIKV infection of hNPCs. To identify drugs that inhibit ZIKV infection, we screened the Prestwick library that includes 1120 FDA-approved drug and drug candidates, selected for known bioavailability and safety in humans. To perform the screen, hNPCs seeded in 384-well plates were treated with each compound from the library or vehicle control (DMSO) for 1 hour, followed by addition of ZIKV MR766 at a MOI=0.125. After two hour of inoculation with ZIKV, the virus-containing medium was replaced by fresh virus-free medium and compounds were replenished for each well (See Methods). After an additional three days of culture, cells were fixed and stained with antibodies against the ZIKV envelop protein (ZIKV E) and a cell proliferation marker Ki67 (FIG. 1A). The percentages of ZIKV E^+ cells, Ki67^+ cells and total cell number were quantified by an automated imaging and analysis system. A two dimensional analysis was performed to choose the primary hit compounds (FIG. 5A). The X-axis represents the fold change of total cell number, which was calculated by dividing the total cell number of the chemical-treated well by the average total cell number of DMSO-treated wells. The Y-axis represents the fold change of the percentage of ZIKV infected cells, which was calculated by dividing the percentage of cells expressing ZIKV E in each chemical-treated well by the average of the percentage of cells expressing ZIKV E from DMSO-treated wells. […] Based on the fold change of the percentage of ZIKV infection, the signal-to-basal (S/B) ratio is 4.2 and the coefficient of variation (CV) is 6.9%. The Z factor is 0.59 indicating a robust screening system.
hNPCs were plated on 96-well plates at 8.5×10^4/cm^2. After overnight incubation, hNPCs were infected with ZIKV (MR766 strain, MOI=0.125) for 2 h, and changed to virus-free medium. The cells were maintained in NPC medium with daily medium change. Three days later, the supernatant and cells were collected and used for assays. hESC-derived forebrain organoids were infected with ZIKV MR766 (5×10^5 PFU/ml) for 24 h. After removal of virus containing medium, forebrain organoids were maintained in forebrain organoid medium for an additional 3 or 17 days and then used for assays.
High-content Screen. hNPCs were dissociated and plated on Matrigel-coated 384-well plates for the chemical screen. […] DMSO was used as a negative control. ZIKV MR766 was added at MOI=0.125. After 2 hour infection, the supernatant was replaced with fresh medium and compounds from the same chemical library were added to the same wells. After an additional 3 days incubation, cells were fixed, stained with antibodies against ZIKV envelop protein (ZIKV E) and proliferation marker Ki67, and analyzed with the ImageXpress^MICRO Automated High-Content Analysis System. […] X-axis represents the fold change of total cell number, which was calculated by dividing the total cell number of the chemical treated well by the average of total cell number of DMSO treated wells. Y-axis represents the fold change of the percentage of ZIKV infection, which was calculated by dividing the percentage of ZIKV infection of the chemical treated well by the average of the percentage of ZIKV infection of DMSO treated wells. The compounds in which the fold change of total cell number >1 and the fold change of the percentage of ZIKV infection <20% were further evaluated. […]

With `O=C([O-])c1ccccc1-c1c2cc(Br)c(=O)cc-2oc2[c]([Hg+])c([O-])c(Br)cc12.[Na+].[Na+].[OH-]` [Merbromin] the “hNPC proliferation in ZIKV infected hNPCs” value (hNPCs) was “significantly increased”, the “total cell loss in ZIKV infected hNPCs” value (hNPCs) was “rescued the total cell loss” and the “ZIKV infection of hNPCs” value (ZIKV MR766) was “did not affect ZIKV infection”.
